The target of assay [1] is T1, SARS-CoV-2 PLpro (nsp3 1564–1878) (Severe acute respiratory syndrome coronavirus 2, UniProt P0DTD1). Briefly: biochemical. Set-up: FRET-quenched peptide (Pro3) cleavage by PLpro, 10 min pre-incubation, slope over 20 min, normalised to no-compound control. The following applies: low concentration screen, read-out: % of control remaining.
For assay [2], the target named is T1, SARS-CoV-2 PLpro (nsp3 1564–1878). As to the kind of experiment: biochemical. Set-up: FRET-quenched peptide (Pro3) cleavage by PLpro, 10 min pre-incubation, slope over 20 min, normalised to no-compound control. The following applies: high concentration screen, read-out: % of control remaining.

Counter-ions that a name gives are not always drawn. Like-named read-outs stand apart in the source and are kept apart here.

As for `Cc1cccc(-c2[nH]ncc2-c2ccc3ncccc3n2)n1` [RepSox], the remaining activity at 1.25 µM in assay [1] (Well no.=5490) was found to be 96.3%. Besides, in assay [2] (Well no.=5490), the remaining activity at 3.75 µM amounted to 95.5%.
Turning to `CCOc1cc(CC(=O)N[C@@H](CC(C)C)c2ccccc2N2CCCCC2)ccc1C(=O)O` [Repaglinide], in assay [1] (Well no.=4817), the remaining activity at 1.25 µM is 101%. Also, in assay [2] (Well no.=4817), the remaining activity at 3.75 µM came out at 95.8%.
As for `CC(C)Cc1ccc([C@@H](C)C(=O)NS(C)(=O)=O)cc1` [Reparixin (L-lysine salt)], the remaining activity at 1.25 µM in assay [1] (Well no.=8059) came to 100%; in assay [1] (Well no.=8125) it was 104%. Moreover, the remaining activity at 3.75 µM was 99.6% in assay [2] (Well no.=8059) and 104% in assay [2] (Well no.=8125).
In the case of `CC(C)Cc1ccc([C@@H](C)C(=O)NS(C)(=O)=O)cc1` [Reparixin], the remaining activity at 1.25 µM in assay [1] (Well no.=7277) is 99.5%; in assay [1] (Well no.=8501), 106%. Further, the figures for the remaining activity at 3.75 µM in assay [2] (Well no.=7277) and in assay [2] (Well no.=8501) were 99.9% and 106%, respectively.
As for `CCOC(=O)C1=CCCC[C@H]1S(=O)(=O)Nc1ccc(F)cc1Cl` [Resatorvid], in assay [1] (Well no.=8421), the remaining activity at 1.25 µM was 90.4%. In assay [2] (Well no.=8421), the remaining activity at 3.75 µM came out at 90.5%.
For the molecule `COC(=O)[C@H]1[C@H]2C[C@@H]3c4[nH]c5cc(OC)ccc5c4CCN3C[C@H]2C[C@@H](OC(=O)c2cc(OC)c(OC)c(OC)c2)[C@@H]1OC` [Reserpine], in assay [1] (Well no.=3833), the remaining activity at 1.25 µM came out at 97%. Besides, the remaining activity at 3.75 µM in assay [2] (Well no.=3833) came out at 94.7%.
For the molecule `CCOCc1nc2c(N)nc3ccccc3c2n1CC(C)(C)O` [Resiquimod], the remaining activity at 1.25 µM in assay [1] (Well no.=5488) was found to be 107%; in assay [1] (Well no.=8499), 102%. The remaining activity at 3.75 µM in assay [2] (Well no.=5488) turned out to be 107%; in assay [2] (Well no.=8499), 106%.
Consider `Oc1ccc(/C=C/c2cc(O)cc(O)c2)cc1` [Resveratrol], for which the remaining activity at 1.25 µM worked out at 94.9% in assay [1] (Well no.=1492), 101% in assay [1] (Well no.=3130) and 103% in assay [1] (Well no.=3847). For the same molecule, the remaining activity at 3.75 µM was 95.7% in assay [2] (Well no.=1492), 102% in assay [2] (Well no.=3130) and 101% in assay [2] (Well no.=3847).
`CC1=C(/C=C/C(C)=C/C=C/C(C)=C/C(=O)Nc2ccc(O)cc2)C(C)(C)CCC1` [Retinoic acid p-hydroxyanilide]: the remaining activity at 1.25 µM in assay [1] (Well no.=708) was determined as 97.5%. Moreover, the remaining activity at 3.75 µM in assay [2] (Well no.=708) is 94.4%.
Regarding `CC1=C(/C=C/C(C)=C/C=C/C(C)=C/C(=O)O)C(C)(C)CCC1` [Retinoic acid], the remaining activity at 1.25 µM stood at 98% in assay [1] (Well no.=1252); 95.7% in assay [1] (Well no.=1628); 102% in assay [1] (Well no.=3132); 101% in assay [1] (Well no.=4426); 106% in assay [1] (Well no.=6163). In addition, the remaining activity at 3.75 µM in assay [2] (Well no.=1252) is 98.8%; in assay [2] (Well no.=1628), 99.6%; in assay [2] (Well no.=3132), 104%; in assay [2] (Well no.=4426), 101%; in assay [2] (Well no.=6163), 108%.
As to `CCCCCCCCCCCCCCCC(=O)OC/C=C(C)/C=C/C=C(C)/C=C/C1=C(C)CCCC1(C)C` [Retinyl palmitate], in assay [1] (Well no.=4134), the remaining activity at 1.25 µM stood at 96.7%. In addition, the remaining activity at 3.75 µM in assay [2] (Well no.=4134) amounted to 97.6%.
`C/C=C1\C[C@@H](C)[C@](O)(CO)C(=O)OCC2=CCN3CC[C@@H](OC1=O)[C@@H]23` [Retrorsine]: the remaining activity at 1.25 µM in assay [1] (Well no.=3298) came to 99.9%. For the same molecule, the remaining activity at 3.75 µM in assay [2] (Well no.=3298) was found to be 104%.
Take `O=C(NCCCN1CCOCC1)c1cnn2c(-c3ccccc3)cc(-c3ccccc3)nc12` [Reversan]: the remaining activity at 1.25 µM in assay [1] (Well no.=5656) turned out to be 96.9%. The remaining activity at 3.75 µM in assay [2] (Well no.=5656) was 98.2%.
Regarding `c1nc2c(NC3CCCCC3)nc(Nc3ccc(N4CCOCC4)cc3)nc2[nH]1` [Reversine], the remaining activity at 1.25 µM in assay [1] (Well no.=2621) is 98.6%. In addition, the remaining activity at 3.75 µM in assay [2] (Well no.=2621) was 100%.
Consider `COc1ccc(/C=C/c2cc(O)cc(O[C@@H]3O[C@H](CO)[C@@H](O)[C@H](O)[C@H]3O)c2)cc1O` [Rhapontin], for which the remaining activity at 1.25 µM in assay [1] (Well no.=3300) turned out to be 102%. Besides, the remaining activity at 3.75 µM in assay [2] (Well no.=3300) is 101%.
Consider `c1ccc2c(-c3ccncc3)c[nH]c2c1` [Rho Kinase Inhibitor III, Rockout], for which the remaining activity at 1.25 µM in assay [1] (Well no.=2557) came out at 101%. Besides, in assay [2] (Well no.=2557), the remaining activity at 3.75 µM is 103%.
For `Cc1cncc2cccc(S(=O)(=O)N3CCCN(C(=O)CN)C[C@@H]3C)c12` [Rho Kinase Inhibitor IV], the remaining activity at 1.25 µM in assay [1] (Well no.=2559) is 104%. The remaining activity at 3.75 µM in assay [2] (Well no.=2559) came to 105%.
Regarding `C[C@@H]1O[C@@H](O[C@H]2[C@H](Oc3cc(O)c4c(=O)cc(-c5ccc(O)cc5)oc4c3)O[C@H](CO)[C@@H](O)[C@@H]2O)[C@H](O)[C@H](O)[C@H]1O` [Rhoifolin], the remaining activity at 1.25 µM in assay [1] (Well no.=3733) was determined as 95.5%. Also, the remaining activity at 3.75 µM in assay [2] (Well no.=3733) amounted to 98.5%.
In the case of `N[C@H](Cc1c[nH]c2ccccc12)C(=O)N/N=C/c1ccc2nccnc2c1` [Rhosin (hydrochloride)], in assay [1] (Well no.=7170), the remaining activity at 1.25 µM was 91.4%. For the same molecule, the remaining activity at 3.75 µM in assay [2] (Well no.=7170) was 93%.
As to `NC(=O)c1ncn([C@@H]2O[C@H](CO)[C@@H](O)[C@H]2O)n1` [Ribavirin], the remaining activity at 1.25 µM worked out at 96.8% in assay [1] (Well no.=1256) and 96.4% in assay [1] (Well no.=2199). Moreover, the results for the remaining activity at 3.75 µM in assay [2] (Well no.=1256) and in assay [2] (Well no.=2199) were 97.1% and 98.2%, respectively.
In the case of `OC[C@@H](O)[C@@H](O)[C@@H](O)CO` [Ribitol], the remaining activity at 1.25 µM in assay [1] (Well no.=6775) stood at 104%. The remaining activity at 3.75 µM in assay [2] (Well no.=6775) worked out at 102%.
In the case of `CCCCCC[C@@H](O)C/C=C\CCCCCCCC(=O)O` [Ricinoleic acid], the remaining activity at 1.25 µM in assay [1] (Well no.=4484) turned out to be 102%. In assay [2] (Well no.=4484), the remaining activity at 3.75 µM was found to be 99.9%.
For `CCC[S+]([O-])c1ccc2[nH]c(NC(=O)OC)nc2c1` (stereo not drawn) [Ricobendazole], in assay [1] (Well no.=2021), the remaining activity at 1.25 µM turned out to be 103%. Also, in assay [2] (Well no.=2021), the remaining activity at 3.75 µM is 106%.
On to `CO[C@H]1/C=C/O[C@@]2(C)Oc3c(C)c(O)c4c(O)c(c(/C=N/N5CCN(C)CC5)c(O)c4c3C2=O)NC(=O)/C(C)=C\C=C\[C@H](C)[C@H](O)[C@@H](C)[C@@H](O)[C@@H](C)[C@H](OC(C)=O)[C@@H]1C` [Rifampicin], for which the remaining activity at 1.25 µM in assay [1] (Well no.=1668) turned out to be 103%; in assay [1] (Well no.=3138), 101%. Further, the values for the remaining activity at 3.75 µM in assay [2] (Well no.=1668) and in assay [2] (Well no.=3138) were 102% and 97.7%, respectively.
Turning to `COc1cc(OC)c(/C=C/S(=O)(=O)Cc2ccc(OC)c(NCC(=O)O)c2)c(OC)c1` [Rigosertib (sodium)], the remaining activity at 1.25 µM in assay [1] (Well no.=6400) was found to be 98.5%. The remaining activity at 3.75 µM in assay [2] (Well no.=6400) was 97.7%.
